Columns and labels:
SW948 cells = test: SW948 colon tumor xenograft study with IMC-C225, CPT-11 and RT; type: in vivo, athymic nude mice; conditions: s.c. SW948 tumors, n=7/group, RT 3 Gy q6d
[1] = test system: Mia-PaCa-2 human pancreatic cancer cells; test: MiaPaCa-2 xenograft tumor therapy study with IMC-C225, gemcitabine and radiation; type: in vivo, athymic nude mice; conditions: s.c. Mia-PaCa-2 tumors, n=8/group, RT 3 Gy q6d
Procedure: Athymic nude mice were implanted subcutaneously with 2×10^7 Mia-PaCa-2 cells mixed with Matrigel.
MiaPaCa-2 cells were mixed with Matrigel (1:1) and 2×10^7 cells injected s.c. into athymic nude mice on day 0. […] Four groups of mice received gemcitabine (120 mg/kg) i.v. on days 23, 29, 35, 41, 47, and 54. In four groups of mice, tumors were exposed to six fractions of 3 Gy ^60Co radiation on days 24, 30, 36, 42, 48, and 55. The results are presented as the change in tumor size relative to baseline size on day 22. The MiaPaCa-2 experiment was terminated after 333 days.
In the animal model tumor therapy studies, multiple endpoints were examined and appropriate statistical tests were conducted to address differences between treatment groups with respect to each endpoint. The endpoints included, the size of the tumor, which was computed for each tumor at each time period, percent of original tumor size, computed for each tumor at each time point after baseline, regression, time to regression, and time that the tumor size reached twice the original tumor size (time to double). Inferences are made on the true median rather than the mean response, i.e. median tumor size or median time to double in size.

BxPC-3 cells = test: In vitro cell proliferation, BxPC-3; type: cell-based, human
MiaPaCa-2 cells [2] = test: In vitro cell proliferation, MiaPaCa-2; type: cell-based, human
Source text: (§1) Various combinations of treatment modality were studied in vitro.

MiaPaCa-2 cells [3] = test: Apoptotic cell death in vitro (annexin V-FITC), MiaPaCa-2; type: cell-based, human; conditions: MiaPaCa-2, p-value<0.05; not enhanced by any other treatment
Source text: Early stages of apoptosis were identified using an annexin V-FITC apoptosis detection kit (BioVision Research Products, Palo Alto, Calif.). In studies of radiation cell survival assays, survival data was fitted to the linear quadratic (LQ) and single hit multi-target (SHMT) radiobiological models using Fit v. 2.4 software kindly provided by Dr. N. Albright, University of California at San Francisco.
as §1

SMILES: CCc1c2c(nc3ccc(OC(=O)N4CCC(N5CCCCC5)CC4)cc13)-c1cc3c(c(=O)n1C2)COC(=O)[C@]3(O)CC [CPT-11, irinotecan]
- mean tumor size doubling time (SW948 cells; IMC-C225 1 mg q3d×12, CPT-11 33 mg/kg q4d): 57 days
- complete tumor regressions (SW948 cells; IMC-C225 1 mg q3d×12 i.p., CPT-11 33 mg/kg i.v. q4d, regressions/animals): 0/7

SMILES: Nc1ccn([C@@H]2O[C@H](CO)[C@@H](O)C2(F)F)c(=O)n1 [gemcitabine]
- mean tumor size doubling time ([1]; IMC-C225 1 mg q3d×12, GEM 120 mg/kg q6d): 22 days
- complete tumor regressions ([1]; IMC-C225 1 mg q3d×12 i.p., GEM 120 mg/kg q6d, regressions/animals): 0/8
- cell proliferation, combination of radiation (3 Gy) and gemcitabine (BxPC-3 cells; BxPC-3): decrease in cell proliferation
- inhibition of cell growth (BxPC-3 cells; BxPC-3, 24 h exposure to the IC50 dose of gemcitabine): approximately 55%
- cell proliferation, combination of radiation (3 Gy) and gemcitabine (MiaPaCa-2 cells [2]; MiaPaCa-2): decrease in cell proliferation
- inhibition of cell growth (MiaPaCa-2 cells [2]; MiaPaCa-2, 24 h exposure to the IC50 dose of gemcitabine): approximately 45%
- apoptotic cell death (MiaPaCa-2 cells [3]): small but significant increase

From patent publication US20050281814A1, “Combination radiation therapy and chemotherapy in conjunction with administration of growth factor receptor antibody” (priority 2000, published 2005)
